Data on 1 substance can be found in US12611423B2, “Medical use of tafoxiparin” (DILAFOR AB, priority 2022, dated 2026).

The nature of the test: anticoagulant activity (descriptive).

Take tafoxiparin: the anticoagulant activity result is on record as “essentially no anticoagulant activity”.
